Measurements from patent publication US12460265B2, “Post-treatment breast cancer prognosis” (Biotheranostics, Inc., priority 2010, dated 2025).

Columns and labels:
ER+ breast cancer = assay: NCIC CTG MA.17 case-control study: cancer recurrence after 5 years of adjuvant tamoxifen, letrozole vs placebo; type: in vivo, human; settings: for Cases (cancer recurrence), number / Cases (cancer recurrence), percent: Letrozole arm
From the text: Samples from the NCIC CTG MA.17 cohort (see Goss et al., J. Clin. Oncol., 26(12):1948-1955, 2008) were used. 100 cases with 200 controls were used. The 100 cases included 61 cases of distant cancer recurrence; 17 cases of local cancer recurrence; 5 cases of regional cancer recurrence; 16 cases of contralateral recurrences; and 1 unknown case. Of these, the contralateral and unknown cases were excluded.
Clinical follow-up data were available for the samples used, which were formalin-fixed paraffin-embedded (FFPE) tumor blocks from the time of diagnosis. Odds ratios were calculated with analysis of BCI, H:I, HoxB13 and MGI as continuous and categorical variables. Multivariate analysis also included age, tumor grade and treatment in the analysis. Treatment interaction: age and tumor grade were also included in the analysis. P-values were calculated for the interaction term.
STATISTICAL ANALYSES: Kaplan-Meier analysis with logrank test and Cox proportional hazards regression were performed to assess the association of gene expression indexes with clinical outcome. Multivariate Cox regression models were performed to assess the prognostic capacity of gene expression indexes after adjusting for known prognostic factors.
Proportional hazards (PH) assumption was checked by scaled Schoenfeld residuals; variables violating PH assumption were adjusted for in the model through stratification. To account for the case-cohort design of the Table 1 cohort, we used weighted Kaplan-Meier analysis and Cox regression models with modifications to handle case-cohort designs (see ^19,20 as implemented in the survey package in R (www.r-project.org). To test for interaction between dichotomized MGI and the H:I ratio in Cox regression models, the Wald statistic was used in the Table 1 cohort and likelihood ratio test was used in the last cohort.

[1] = test system: primary ER+ breast cancer; settings: post-tamoxifen treatment; subjects with primary ER+ breast cancer; cited from earlier work

For `N#Cc1ccc(C(c2ccc(C#N)cc2)n2cncn2)cc1` [Letrozole, letrozole], which “Cases (cancer recurrence), number” value (ER+ breast cancer; High HoxB13 expression) is on record?
The value was 17.

What about the “Cases (cancer recurrence), percent” value (ER+ breast cancer; High HoxB13 expression) of the same molecule?
The value was “(28%)”.

And the “Cases (cancer recurrence), number” value (ER+ breast cancer; Low HoxB13 expression)?
Its value is 14.

And the “Cases (cancer recurrence), percent” value (ER+ breast cancer; Low HoxB13 expression)?
The value was “(23%)”.

What about the “Odds Ratio, Treatment (Placebo vs Letrozole), in relation to cancer recurrence” value (ER+ breast cancer; univariate analysis, MA.17 subjects, 95% CI in the next column) of the same molecule?
The value was 2.02.

What about the “breast cancer-free survival and distant breast cancer-free survival” value [1] of the same molecule?
Its value is “improves breast cancer-free survival and distant breast cancer-free survival”.
